Assay results reported in ChEMBL document CHEMBL1151432, “Increased susceptibility to colistin in hypermutable Pseudomonas aeruginosa strains from chronic respiratory infections” (Antimicrob Agents Chemother, 2007).

Tests used:
Format in all cases: functional, organism-based
[1] = test system: Pseudomonas aeruginosa; assay: Antimicrobial activity against Pseudomonas aeruginosa ATCC 27853 by Etest method
[2] = test system: Pseudomonas aeruginosa; assay: Antimicrobial activity against Pseudomonas aeruginosa PAO1 by Etest method
[3] = test system: Pseudomonas aeruginosa; assay: Antimicrobial activity against non-hypermutable Pseudomonas aeruginosa isolated from patients with chronic respiratory infection by Etest method
[4] = test system: Pseudomonas aeruginosa; assay: Antimicrobial activity against mutS-deficient Pseudomonas aeruginosa PAO1 by Etest method
[5] = test system: Pseudomonas aeruginosa; assay: Antimicrobial activity against non-hypermutable Pseudomonas aeruginosa isolated from intensive care unit patients with chronic respiratory infection by Etest method
[6] = test system: Pseudomonas aeruginosa; assay: Antimicrobial activity against hypermutable Pseudomonas aeruginosa isolated from patients with chronic respiratory infection by Etest method

MIC [1]: 1 µg/mL | MIC [2]: 2 µg/mL | MIC [3]: 0.92 µg/mL | MIC [4]: 2 µg/mL | MIC [5]: 2 µg/mL | MIC [6]: 0.48 µg/mL
Sequence: COLISTIN
